Assay results taken from patent US7186534B1 (The Trustees of Columbia University in the City of New York, priority 1997, dated 2007).
Entries after “also recorded” stand apart in the source; their conditions may differ.

Tests used:
Type in all cases: biochemical
[1] = target: T1, human 9cRDH (h9cRDH) (Homo sapiens, UniProt Q92781); assay: Retinaldehyde isomer reduction by recombinant human 9cRDH; details: for h9cRDH specific activity, retinaldehyde reduction: substrate 10 μM, 15 min, 150–180 μg protein/assay, NADH, pH 5.0
T1 sequence (Q92781 1-318): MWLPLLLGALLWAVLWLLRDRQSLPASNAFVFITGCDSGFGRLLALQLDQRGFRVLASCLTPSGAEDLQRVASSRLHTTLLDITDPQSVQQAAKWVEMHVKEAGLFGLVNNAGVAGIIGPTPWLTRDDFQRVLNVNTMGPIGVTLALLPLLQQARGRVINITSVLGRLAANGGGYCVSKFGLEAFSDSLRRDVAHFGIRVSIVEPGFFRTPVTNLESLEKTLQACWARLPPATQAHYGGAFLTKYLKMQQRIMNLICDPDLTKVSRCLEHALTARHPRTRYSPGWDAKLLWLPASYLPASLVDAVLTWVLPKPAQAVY
Method: (§1) Enzymatic Assays. Assays for human and mouse 9cRDH were carried out essentially as were described previously for human 9cRDH (19). For expression of mouse 9cRDH a cDNA clone obtained from a mouse liver cDNA library was employed (see below). Recombinant human or mouse 9cRDH expressed in CHO cells was incubated in an assay mixture containing 10 μM 9-cis-retinol (added in 0.02 mL ethanol) and 2 mM NAD in 10 mM Hepes, pH 8.0, containing 150 mM KCl, 1 mM EDTA, and 50 μg phosphotidyl choline for 15 min at 37° C. (final assay volume of 0.6 ml) with agitation. This assay mixture was used routinely to measure oxidation of 9-cis-retinol to 9-cis-retinaldehyde and in studies assessing oxidation of 11-cis-, 13-cis- and all-trans-retinol to their corresponding aldehydes. For some experiments, the ability of human or mouse 9cRDH to catalyze the reduction of 9-cis-, 11-cis-, 13-cis- or all-trans-retinaldehyde was assessed. To assess these reduction reactions, incubations were carried out in 100 mM sodium acetate, pH 5.0, containing 50 μg phosphotidyl choline and 2 mM NADH (or 2 mM NADPH) in a final volume of 0.6 ml for 15 min at 37° C.
(§2) Immediately following incubation of the assay, the assay mixture was denatured with an equal volume of absolute ethanol (0.6 ml), and the retinoids extracted into 2.5 ml of hexane. Following one backwash of the hexane extract with 0.5 ml of deionized water, the hexane was evaporated to dryness under a gentle stream of N2. The extracted retinoids were immediately redissolved in 120 μl of hexane and analyzed by normal phase HPLC as described below.

[2] = target: T2, mouse 9cRDH (m9cRDH) (Mus musculus, UniProt O55240); assay: Retinaldehyde isomer reduction by recombinant mouse 9cRDH; details: for m9cRDH specific activity, retinaldehyde reduction: substrate 10 μM, 15 min, 150–180 μg protein/assay, NADH, pH 5.0
T2 sequence (O55240 1-318): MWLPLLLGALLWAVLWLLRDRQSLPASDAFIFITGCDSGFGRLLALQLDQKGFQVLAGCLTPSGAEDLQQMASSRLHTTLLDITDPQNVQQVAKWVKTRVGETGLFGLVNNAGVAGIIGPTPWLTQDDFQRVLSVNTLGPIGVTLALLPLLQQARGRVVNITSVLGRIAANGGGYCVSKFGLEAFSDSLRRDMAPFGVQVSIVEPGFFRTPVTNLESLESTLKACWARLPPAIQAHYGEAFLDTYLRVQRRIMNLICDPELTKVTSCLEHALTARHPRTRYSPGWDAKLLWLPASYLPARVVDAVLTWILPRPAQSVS
Method: as §1, §2

[3] = target: T1, human 9cRDH (h9cRDH); assay: Retinol isomer oxidation by recombinant human 9cRDH (substrate and cofactor specificity); details: for h9cRDH specific activity, retinol oxidation: substrate 10 μM, 15 min, 150–180 μg protein/assay, NAD+
Method: Enzymatic Assay of Retinol Dehydrogenase Activity. Transfected CHO cell pellets were homogenized in PBS at 4° C. using 50 strokes of a Dounce homogenizer For assay of retinol dehydrogenase activity, aliquots of unfractionated CHO cell homogenate were incubated with 10, μM retinol (either as the all-trans, 13-cis, or 9-cis isomer added in ethanol) and either 2 mM NAD+ or 2 mM NADP+ in 10 mM Hepes containing 150 mM KCl, 1 mM EDTA, and 10, μg/ml phosphotidyl choline at pH 8.0 and 37° C. for prechosen time intervals. The final assay volume was 0.6 ml. Assays were routinely carried out in amber glass tubes that had been flushed with N2 to shield the retinoids from both light and O2 All subsequent extractions and procedures were carried out in a manner that minimized exposure of the retinoids to light and O2.
Immediately following incubation, the assay mixture was denatured with an equal volume of absolute ethanol (0.6 ml), and the retinoids were extracted into 3 ml of HPLC grade hexane. Following one backwash of the hexane extract with 0.5 ml of deionized water, the hexane was evaporated to dryness under a gentle stream of N2, and the extracted retinoids were immediately redissolved in 120 μl of hexane and analyzed by normal phase HPLC (see below).
HPLC Procedures. Stereoisomers of both retinol and retinaldehyde were separated on a 4.6×250-mm Vydac 101HS54 silica column using hexane:n-propanol:1-octanol (98.9:1.0:0.1 v/v) flowing at 1.5 ml/min as the mobile phase. The running column was preceded by a silica guard column. Retinols and retinaldehydes were detected by UV absorbance at 350 nm. Retention times for all-trans-, 13-cis-, and 9-cis-retinols were established using purified compounds obtained as described above. Retention times for all-trans-, 13-cis-, and 9-cis-retinaldehyde were determined using commercial standards (Sigma). Quantities of each retinol and retinaldehyde isomer present in extracts were determined by comparisons of the integrated areas under the HPLC peaks with a standard curve constructed relating integrated peak area with known masses of each retinoid isomer. The concentrations of each retinoid isomer were determined by UV-visible spectrophotometry using published extinction coefficients for each retinol and retinaldehyde isomer (26).
as §1, §2

[4] = target: T2, mouse 9cRDH (m9cRDH); assay: Retinol isomer oxidation by recombinant mouse 9cRDH; details: for m9cRDH specific activity, retinol oxidation: substrate 10 μM, 15 min, 150–180 μg protein/assay, NAD+
Method: as §1, §2

[5] = target: T3, human 9-cis retinol dehydrogenase (9cRDH) (Homo sapiens, UniProt Q92781); assay: Inhibition of recombinant human 9cRDH activity (9-cis-retinol oxidation, CHO cell homogenate, HPLC); details: for inhibition of human 9cRDH activity (in words): 10 μM 9-cis-retinol
T3 sequence (Q92781 1-318): T1 sequence (Q92781 1-318)

[6] = target: T4, mouse 9cRDH (Mus musculus, UniProt O55240); assay: Inhibition of recombinant mouse 9cRDH activity (9-cis-retinol oxidation, CHO cell homogenate, HPLC)
T4 sequence (O55240 1-318): T2 sequence (O55240 1-318)

[7] = target: T5, human 9cRDH (Homo sapiens, UniProt Q92781); assay: Hydroxysteroid oxidation/reduction by human 9cRDH (TLC); details: 37° C., 1.5 h; TLC detection limit approximately 3 pmol/min/mg protein
T5 sequence (Q92781 1-318): T1 sequence (Q92781 1-318)
Method: (§3) To investigate whether human or mouse 9cRDH will catalyze oxidations or reductions of 3α-hydroxy-, 11β-hydroxy- or 17β-hydroxysteroids, these steroids were incubated at 37° C. for 1.5 h in the assay media described above for assessing oxidation/reduction of 9-cis-retinol/9-cis-retinaldehyde. The Hepes NAD^+-containing assay buffer described above was employed to assess hydroxysteroid oxidation and to assess hydroxysteroid reduction the acetate buffer containing NADH (or NADPH) assay buffer (see above) was employed. Immediately following incubation, the steroids were extracted as described above for retinoids. The final hexane extract was evaporated to near dryness and this was spotted onto a silica high performance TLC plate (Whatman Inc., Clifton, N.J.) and developed in hexane/diethyl ether/acetic acid (70:30:1, v/v) or ethyl acetate/chloroform (25:75, v/v). Steroids were visualized by charring after treatment of the TLC plates with an areosol of 10% (v/v) H2SO4 in methanol.
(§4) Biswas and Russell (32) have reported that rat liver all-trans-retinol dehydrogenase type I also uses several 3α-hydroxy- and 17β-hydroxysteroids as substrates. Chai et al. (18) also reported that hydroxysteroids are substrates for mouse liver cis-retinol dehydrogenase. Since human 9cRDH is approximately 50% identical to the rat liver enzymes and shares approximately 63% homology to mouse liver cis-retinol dehydrogenase, next investigated was whether these steroids might also be substrates for 9cRDH. To test this possibility it was determined whether human or mouse 9cRDH would catalyze oxidation of 5α-androstan-3α, 17β-diol, androsterone, testosterone or dihydrotestosterone to corresponding ketone products. Also investigated was whether human and/or mouse 9cRDH could catalyze reduction of the corresponding ketones. […] It is estimate, based on the lower limits for hydroxysteroid detection by TLC, that it would be possible to detect rates of hydroxysteroid oxidation as low as approximately 3 pmol/min/mg protein. This rate of hydroxysteroid oxidation is at least 2-orders of magnitude lower than Vmax values reported by Biswas and Russell (32) and Chai et al. (18) for oxidation of hydroxysteroids in their studies of enzymes that are able to oxidize both retinol and hydroxysteroids.

[8] = target: T4, mouse 9cRDH; assay: Hydroxysteroid oxidation/reduction by mouse 9cRDH (TLC); details: 37° C., 1.5 h; TLC detection limit approximately 3 pmol/min/mg protein
Method: as §3, §4

[9] = equimolar concentrations, any substrate

CC1=C(/C=C/C(C)=C/C=C/C(C)=C\C=O)C(C)(C)CCC1 [13-cis-retinaldehyde]
h9cRDH specific activity, retinaldehyde reduction [1]: 744 pmol/min/mg protein
m9cRDH specific activity, retinaldehyde reduction [2]: 748 pmol/min/mg protein

CC1=C(/C=C/C(C)=C/C=C/C(C)=C\CO)C(C)(C)CCC1 [13-cis-retinol]
rate of oxidation relative to that observed for 9-cis-retinol ([3]; first series, 2 mM NAD+, 10 μM retinol): 10%
h9cRDH specific activity, retinol oxidation [3]: 0.3 pmol/min/mg protein
m9cRDH specific activity, retinol oxidation [4]: 2.0 pmol/min/mg protein

NC(=O)c1ccc[n+]([C@@H]2O[C@H](COP(=O)([O-])OP(=O)(O)OC[C@H]3O[C@@H](n4cnc5c(N)ncnc54)[C@H](OP(=O)(O)O)[C@@H]3O)[C@@H](O)[C@H]2O)c1 [NADP+]
cofactor activity relative to NAD+ for 9-cis-retinol oxidation ([3]; both at 2 mM): 8%
reaction rate supported relative to NAD+, human 9cRDH retinol oxidation [3, 9]: ≤ 10%
reaction rate supported relative to NAD+, mouse 9cRDH retinol oxidation [4, 9]: ≤ 10%

CC1=C(/C=C/C(C)=C/C=C/C(C)=C/CO)C(C)(C)CCC1 [all-trans Retinol, All-trans-retinol]
inhibition of human 9cRDH activity (in words) ([5]; listed as all-trans retinol): did not inhibit
inhibition of human 9cRDH activity (in words) ([5]; listed as all-trans-retinol): only very weak inhibitors; also recorded: did not inhibit
inhibition of mouse 9cRDH activity (in words) ([6]; 10 μM 9-cis-retinol): only very weak inhibitors
oxidation to the corresponding retinaldehyde by transfected CHO cell homogenate (in words) ([3]; 2 mM NAD+): unable to catalyze the oxidation
h9cRDH specific activity, retinol oxidation [3]: 0.5 pmol/min/mg protein
m9cRDH specific activity, retinol oxidation [4]: 0.6 pmol/min/mg protein

CC1=C(/C=C/C(C)=C/C=C/C(C)=C/C=O)C(C)(C)CCC1 [all-trans-retinaldehyde]
h9cRDH specific activity, retinaldehyde reduction [1]: 1.1 pmol/min/mg protein
m9cRDH specific activity, retinaldehyde reduction [2]: 1.3 pmol/min/mg protein

C[C@]12CC[C@@H](O)C[C@@H]1CC[C@@H]1[C@@H]2CC[C@]2(C)C(=O)CC[C@@H]12 [androsterone]
inhibition of human 9cRDH activity by hydroxysteroids [5]: none of these hydroxysteroids inhibited
inhibition of mouse 9cRDH activity by hydroxysteroids [6]: none of these hydroxysteroids inhibited
catalysis by human 9cRDH of hydroxysteroid oxidation to ketone products (or reduction of the corresponding ketones) [7]: Neither human nor mouse 9cRDH were found to catalyze
catalysis by mouse 9cRDH of hydroxysteroid oxidation to ketone products (or reduction of the corresponding ketones) [8]: Neither human nor mouse 9cRDH were found to catalyze

NADPH
reaction rate supported relative to NADH, human 9cRDH retinaldehyde reduction [1, 9]: ≤ 10%
reaction rate supported relative to NADH, mouse 9cRDH retinaldehyde reduction [2, 9]: ≤ 10%
